{"source": "patent US20070299083A1", "about": "“6-Methoxy-8-[4-(1-(5-fluoro)-quinolin-8-yl-piperidin-4-yl)-piperazin-1-yl]-quinoline hydrochloric acid salts” (Wyeth, priority 2006, published 2007)", "assay": "solubility in aqueous media", "type": "physicochemical", "conditions": "even in the presence of surfactants"}
{"smiles": "COc1cc(N2CCN(C3CCN(c4ccc(F)c5cccnc45)CC3)CC2)c2ncccc2c1", "note": "[free base, 6-methoxy-8-[4-(1-(5-fluoro)-quinolin-8-yl-piperidin-4-yl)-piperazin-1-yl]-quinoline]", "values": [{"measurement": "solubility", "result": "~0.4", "unit": "µg/mL"}]}
